Experiments:
RARα = biological target: T1, RARα (Homo sapiens, UniProt P10276); test: chimeric receptor transactivation assay, RARα; type: cell-based; conditions: for EC50: chimeric receptor transactivation, read-out: RAR Trans. EC50 α; for Emax: percentage compared to the standard compound, read-out: RAR Trans. efficacy (number in parentheses) α
T1 sequence (P10276 183-417 limits assumed): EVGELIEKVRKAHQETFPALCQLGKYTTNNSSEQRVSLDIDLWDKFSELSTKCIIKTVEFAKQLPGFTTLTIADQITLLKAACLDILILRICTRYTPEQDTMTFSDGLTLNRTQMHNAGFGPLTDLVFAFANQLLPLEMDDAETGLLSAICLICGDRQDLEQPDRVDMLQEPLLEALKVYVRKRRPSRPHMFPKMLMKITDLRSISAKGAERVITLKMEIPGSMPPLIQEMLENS
Description: (§1) Specifically, one such assay is a chimeric receptor transactivation assay which tests for agonist-like activity in the R RAPE and RAR7 receptor subtypes, and which is based on work published by Feigner, P. L. and Holm, M (1989) Focus, 112 is described in detail in U.S. Pat. No. 5,455,265. The specification of U.S. Pat. No. 5,455,265 is hereby expressly incorporated by reference. A holoreceptor transactivation assay and a ligand binding assay which measure the antagonist/agonist like activity of the compounds of the invention, or their ability to bind to the several retinoid receptor subtypes, respectively, are described in published PCT Application No. WO WO93/11755 (particularly on pages 30-33 and 37-41) published on Jun. 24, 1993, the specification of which is also incorporated herein by reference. A detailed experimental procedure for holoreceptor transactivations has been described by Heyman et al. Cell 68, 397-406, (1992); Allegretto et al. J. Biol. Chem. 268, 26625-26633, and Mangelsdorf et al. The Retinoids: Biology, Chemistry and Medicine, pp 319-349, Raven Press Ltd., New York, which are expressly incorporated herein by reference. The results obtained in this assay are expressed in EC50 numbers, as they are also in the chimeric receptor transactivation assay. The results of the ligand binding assay are expressed in Ki numbers. (See Cheng et al. Biochemical Pharmacology Vol. 22 pp 3099-3108, expressly incorporated herein by reference.)
(§2) Efficacy in a transactivation assay is expressed as a percentage of the maximum potency attained by the compound compared to a standard which, in this case, is the compound named (2E,4E,1′S,2′S)-3-methyl-5-[2′-methyl-2′-(5,5,8,8-tetramethyl-5,6,7,8-tetrahydro-naphthalen-2-yl)-cyclopropyl]-penta-2,4-dienoic acid. This standard compound is described in U.S. Pat. No. 6,114,533.
(§3) The specification of this application for patent is organized in several sections in accordance with structural Formulas A through F each of which discloses a group of preferred compounds within the scope of the invention. Tables that disclose the activity of certain exemplary compounds of the invention in the above-described RXR receptor transactivation and binding assays are found in the corresponding sections. […] The transactivation data pertaining to the activation of RXR receptors were obtained in the holoreceptor assay.
(§4) Generally speaking, in the tables disclosing the results of transactivation and binding assays the numbers in parentheses indicate efficacy as a percentage compared to the standard compound, (2E,4E,1′S,2′S)-3-methyl-5-[2′-methyl-2′-(5,5,8,8-tetramethyl-5,6,7,8-tetrahydro-naphthalen-2-yl)cyclopropyl]-penta-2,4-dienoic acid and the other numbers indicate the measured EC50 and K; in nanomolar concentration.

RARβ = biological target: T2, RARβ (Homo sapiens, UniProt P10826); test: chimeric receptor transactivation assay, RARβ; type: cell-based; conditions: for EC50: chimeric receptor transactivation, read-out: RAR Trans. EC50 β; for Emax: percentage compared to the standard compound, read-out: RAR Trans. efficacy (number in parentheses) β
T2 sequence (P10826 183-417 limits assumed): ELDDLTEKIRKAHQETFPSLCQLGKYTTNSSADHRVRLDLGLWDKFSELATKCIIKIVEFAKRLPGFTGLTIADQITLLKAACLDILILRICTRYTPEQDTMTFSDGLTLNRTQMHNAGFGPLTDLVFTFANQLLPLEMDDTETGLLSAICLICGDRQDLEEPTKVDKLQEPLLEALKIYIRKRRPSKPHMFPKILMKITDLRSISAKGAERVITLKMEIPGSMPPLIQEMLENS
Description: as §1, §2, §3, §4

RXRβ = biological target: T3, RXRβ (UniProt P28704); test: holoreceptor transactivation assay, RXRβ; type: cell-based; conditions: for EC50: holoreceptor transactivation, read-out: RXR Trans. EC50 β; for RXR Trans. efficacy (number in parentheses) β: percentage compared to the standard compound
T3 sequence (P28704 1-520): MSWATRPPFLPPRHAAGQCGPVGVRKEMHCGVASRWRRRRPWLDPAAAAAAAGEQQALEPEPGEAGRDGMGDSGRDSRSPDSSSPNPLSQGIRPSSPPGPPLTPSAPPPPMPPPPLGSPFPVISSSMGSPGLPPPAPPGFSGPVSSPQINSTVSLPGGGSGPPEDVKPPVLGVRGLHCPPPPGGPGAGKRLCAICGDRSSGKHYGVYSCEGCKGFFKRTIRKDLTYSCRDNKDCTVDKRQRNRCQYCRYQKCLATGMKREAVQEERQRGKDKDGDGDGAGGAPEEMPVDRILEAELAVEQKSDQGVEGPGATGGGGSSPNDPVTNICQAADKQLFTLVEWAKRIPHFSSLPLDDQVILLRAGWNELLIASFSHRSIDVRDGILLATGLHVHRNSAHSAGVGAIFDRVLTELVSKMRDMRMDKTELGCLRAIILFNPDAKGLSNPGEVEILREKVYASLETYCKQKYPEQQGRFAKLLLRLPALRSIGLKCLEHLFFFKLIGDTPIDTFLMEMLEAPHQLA
Description: as §1, §2, §3, §4

RXRγ = biological target: T4, RXRγ (UniProt P28705); test: ligand binding assay, RXRγ; conditions: Table 9 (Formula F); read-out: RXR γ Kd
T4 sequence (P28705 1-463): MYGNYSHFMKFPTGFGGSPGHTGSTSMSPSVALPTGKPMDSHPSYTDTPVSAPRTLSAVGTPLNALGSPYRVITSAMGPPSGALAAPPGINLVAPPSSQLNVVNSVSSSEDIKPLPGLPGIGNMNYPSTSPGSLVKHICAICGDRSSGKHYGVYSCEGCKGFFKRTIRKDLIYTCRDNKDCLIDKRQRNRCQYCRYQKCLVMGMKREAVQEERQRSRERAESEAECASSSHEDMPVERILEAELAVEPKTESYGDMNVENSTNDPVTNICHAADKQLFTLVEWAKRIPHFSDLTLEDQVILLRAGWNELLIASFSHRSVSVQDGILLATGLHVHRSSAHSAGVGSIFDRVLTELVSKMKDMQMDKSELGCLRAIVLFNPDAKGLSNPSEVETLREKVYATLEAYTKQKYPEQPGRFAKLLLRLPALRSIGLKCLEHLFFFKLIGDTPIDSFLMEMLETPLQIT
Description: as §1, §4

| Structure (SMILES) | EC50 (RARα) [µM] | Emax (RARα) [%] | EC50 (RARβ) [µM] | Emax (RARβ) [%] | EC50 (RXRβ) [µM] | RXR Trans. efficacy (number in parentheses) β (RXRβ) [%] | Kd (RXRγ) [µM] |
| --- | --- | --- | --- | --- | --- | --- | --- |
| COc1cc2c(cc1\C(C)=C/C=C/C(C)=C/C(=O)O)C(C(C)C)=CC(C)(C)O2 [Compound 43, 7-(4-Isopropyl-7-methoxy-2,2-dimethyl-2H-chromen-6-yl)-3-methyl-octa-2E,4E,6Z-trienoic acid] | 0.013 | 5 | 0.057 | 37 | 0.016 | 96 |  |
| CCOc1cc2c(cc1\C(C)=C/C=C/C(C)=C/C(=O)O)C(CC)=CC(C)(C)O2 [Compound 45, 7-(7-Ethoxy-4-ethyl-2,2-dimethyl-2H-chromen-6-yl)-3-methyl-octa-2E,4E,6Z-trienoic acid] | 0.121 | 6 | > 1 |  | > 1 |  |  |
| CCOc1cc2c(cc1\C(C)=C(F)/C=C/C(C)=C/C(=O)O)C(c1ccccc1)=CC(C)(C)O2 [Compound 127, (2E,4E,6E)-7-(7-Ethoxy-2,2-dimethyl-4-phenyl-2H-chromen-6-yl)-6-fluoro-3-methyl-octa-2,4,6-trienoic acid] | 0.245 | 26 | 0.227 | 17 |  |  |  |
| CCCOc1cc2c(cc1\C(C)=C(F)/C=C/C(C)=C/C(=O)O)C(c1ccccc1)=CC(C)(C)O2 [Compound 128, (2E,4E,6E)-7-(2,2-Dimethyl-4-phenyl-7-propoxy-2H-chromen-6-yl)-6-fluoro-3-methyl-octa-2,4,6-trienoic acid] | 0.014 | 25 | 0.09 | 22 |  |  |  |
| CC/C(=C(F)/C=C/C(C)=C/C(=O)O)c1cc2c(cc1OC)OC(C)(C)C=C2C [Compound 129, 6-Fluoro-7-(7-methoxy-2,2,4-trimethyl-2H-chromen-6-yl)-3-methyl-nona-2E,4E,6E-trienoic acid] | > 10 |  | 0.563 | 24 | 0.843 | 151 |  |
| CC/C(=C(F)/C=C/C(C)=C/C(=O)O)c1cc2c(cc1OC)OC(C)(C)C=C2C(C)C [Compound 130, 6-Fluoro-7-(4-isopropyl-7-methoxy-2,2-dimethyl-2H-chromen-6-yl)-3-methyl-nona-2E,4E,6E-trienoic acid] | 0.218 | 8 | 0.065 | 31 | 0.0031 | 73 |  |
| CC/C(=C(F)/C=C/C(C)=C/C(=O)O)c1cc2c(c(Cl)c1OC)OC(C)(C)C=C2C(C)C [Compound 171, 7-(8-Chloro-4-isopropyl-7-methoxy-2,2-dimethyl-2H-chromen-6-yl)-6-fluoro-3-methyl-nona-2E,4E,6E-trienoic acid] | > 1 |  | 0.049 | 13 | 0.0002 | 85 |  |
| CCOc1cc2c(cc1\C(C)=C/C=C/C(C)=C/C(=O)O)C(C(C)(C)C)=CCC2(C)C [Compound A-17, 7-(8-tert-Butyl-3-ethyloxy-5,5-dimethyl-5,6-dihydronaphthalen-2-yl)-3-methyl-octa-2E,4E,6Z-trienoic acid] |  |  | 0.05 | 7 | 0.0032 | 72 |  |
| CCOc1cc2c(cc1\C(=C/C=C/C(C)=C/C(=O)O)CC)C(C(C)(C)C)=CCC2(C)C [Compound A-18, 7-(8-tert-butyl-3-ethyoxy-5,5-dimethyl-5,6-dihydronaphthalen-2-yl)-3-methyl-nona-2E,4E,6Z-trienoic acid] |  |  | 0.015 | 7 | 0.011 | 21 |  |
| CCOc1cc2c(cc1\C(C)=C(F)/C=C/C(C)=C/C(=O)O)C=CCC2(C)C [Compound A-76, (2E,4E,6E)-7-(3-Ethoxy-5,5-dimethyl-5,6-dihydro-naphthalen-2-yl)-6-fluoro-3-methyl-octa-2,4.6-trienoic acid] |  |  | > 10 |  | 0.368 | 128 |  |
| CCOc1cc2c(cc1\C(CC)=C(F)/C=C/C(C)=C/C(=O)O)C(CC)=CCC2(C)C [Compound A-78, (2E,4E,6E)-7-(3-Ethoxy-8-ethyl-5,5-dimethyl-5,6-dihydro-naphthalen-2-yl)-6-fluoro-3-methyl-nona-2,4,6-trienoic acid] | 0.029 | 10 | 0.043 | 68 | 0.018 | 23 |  |
| CCOc1cc2c(cc1\C(C)=C(F)/C=C/C(C)=C/C(=O)O)C(C(C)(C)C)=CCC2(C)C [Compound A-82, (2E,4E,6E)-6-Fluoro-3-(4,4-dimethyl-6-ethoxy-1-tert-butyl-3,4 dihydronaphthalen-7-yl)-3-methyl-2,4,6-octa-trienoic acid] |  |  | 0.17 | 9 | 0.004 | 41 |  |
| CCOc1cc2c(cc1\C(CC)=C(F)/C=C/C(C)=C/C(=O)O)C(C(C)(C)C)=CCC2(C)C [Compound A-83, (2E,4E,6E)-7-(8-tert-Butyl-3-ethoxy-5,5-dimethyl-5,6-dihydronaphthalen-2-yl)-6-fluoro-3-methyl-nona-2,4,6-trienoic acid] |  |  | 0.031 | 12 | 0.007 | 17 |  |
| CC(/C=C/C(F)=C(/C)c1cc2c(c(Br)c1OC(C)C)C(C)(C)CC=C2C(C)C)=C\C(=O)O [Compound A-172, (2E,4E,6E)-7-(4-Bromo-3-isopropoxy-8-isopropyl-5,5-dimethyl-5,6-dihydro-naphthalen-2-yl)-6-fluoro-3-methyl-octa-2,4,6-trienoic acid] |  |  |  |  | 0.083 | 39 | 0.221 |
